From patent US20210352950A1 (priority 2019, published 2021)

Assays:
[1] = system: KRAS mutant cancer cells (HCT116, DLD-1, CT26.WT, H23, H727, PANC1); assay: Muse cell viability assay, KRAS mutant panel; assay type: cell-based, human and murine; details: CTR condition, vitamin C ≥0.3 mM, 24 hours
[2] = system: KRAS wild type cell lines (SW48, HT29, PC-3, COV362), normal colon cell line (CCD841CoN) and normal fibroblasts (BJ); assay: Muse cell viability assay, KRAS wild type and normal cells; assay type: cell-based; details: single agent or in combination with STS condition
HO-1 [3] = assay: HO-1 expression in HCT116 (qPCR, western blot); assay type: cell-based, human; details: HCT116, CTR, vitamin C 350 μM 3 hours as single intervention
Protocol: Cells were washed twice in ice-cold PBS and lysates were prepared in RIPA lysis buffer (50 mM Tris HCl pH 7.4, 150 mM NaCl, 1% NP-40, 0.25% deoxycholic acid, 1 mM EDTA) supplemented with protease and phosphatase inhibitors (protease inhibitor cocktail set III EDTA-free, Calbiochem, Cat. #: S39134; PhosStop, Roche), Samples were sonicated (bioruptor plus, diogenode) and centrifuged at 16.1 g for 30 minutes at 4° C. Tumor tissues were collected and snap frozen in liquid nitrogen immediately after mice were sacrificed, and stored in -80° C. until use. […] Protein concentrations were determined by BCA assay (Thermo Fisher Scientific, Cat. #: 23225). Proteins were diluted in 1× Laemmli sample buffer, boiled at 95° C. for 5 minutes and 30 μg of total proteins were separated by using SDS-PAGE and analyzed by western blotting by standard procedures. […] Membranes were incubated overnight at 4° C. with gentle shaking with the following primary antibodies: […] ADI-SPA894), FTH (1:1000, Cell Signaling, Cat. #: 3998), AMPK (1:1000, Cell Signaling, Cat. #: 2532), phospho-[…] […] Bands intensity was quantified with NIH Image J software (version 1.48v). […] Resulting cDNA (1/20 v/v) was analyzed by real-time polymerase reaction (qRT-PCR) using TaqMan MBG probes with FAM reporter dyes. […]

HO-1 [4] = assay: HO-1 protein expression in CT26.WT (western blot); assay type: cell-based, murine; details: vitamin C 350 μM 3 hours
Protocol: Cells were washed twice in ice-cold PBS and lysates were prepared in RIPA lysis buffer (50 mM Tris HCl pH 7.4, 150 mM NaCl, 1% NP-40, 0.25% deoxycholic acid, 1 mM EDTA) supplemented with protease and phosphatase inhibitors (protease inhibitor cocktail set III EDTA-free, Calbiochem, Cat. #: S39134; PhosStop, Roche), Samples were sonicated (bioruptor plus, diogenode) and centrifuged at 16.1 g for 30 minutes at 4° C. Tumor tissues were collected and snap frozen in liquid nitrogen immediately after mice were sacrificed, and stored in -80° C. until use. […] Protein concentrations were determined by BCA assay (Thermo Fisher Scientific, Cat. #: 23225). Proteins were diluted in 1× Laemmli sample buffer, boiled at 95° C. for 5 minutes and 30 μg of total proteins were separated by using SDS-PAGE and analyzed by western blotting by standard procedures. […] Membranes were incubated overnight at 4° C. with gentle shaking with the following primary antibodies: […] ADI-SPA894), FTH (1:1000, Cell Signaling, Cat. #: 3998), AMPK (1:1000, Cell Signaling, Cat. #: 2532), phospho-[…] AMPK (1:1000, Cell Signaling, Cat. #: 2535), eIF2a (1:1000, Cell signaling, Cat. #: 5324), phospho […] eIF2a (1:1000, Cell signaling, Cat. #: 3597), AKT (1:1000, Cell Signaling, Cat. #: 9272), phospho-[…] […] Bands intensity was quantified with NIH Image J software (version 1.48v).

HO-1 [5] = assay: HO-1 protein expression in grafted HCT116 tumors; assay type: in vivo, mouse; details: ad libitum or FMD cycles, vitamin C 4 g/kg i.p. twice a day
[6] = intraperitoneal injection; Chen et al., 2007; 2008; cited from earlier work
HCT116 cells = assay: Muse cell viability assay (percentage of dead cells); details: HCT116, CTR medium, vitamin C ≥0.3 mM (350 μM), 24 hours

O=C1O[C@H]([C@@H](O)CO)C(O)=C1O [vitamin C, ascorbic acid]
sensitivity to vitamin C [1]: modest sensitivity
sensitivity to vitamin C treatment [2]: not sensitive
HO-1 mRNA and protein level (HO-1 [3]): significantly up-regulated HO-1 both at transcriptional and protein level
HO-1 protein expression level (HO-1 [4]): up-regulates HO-1 expression level
HO-1 protein expression level in grafted tumors (HO-1 [5]): HO-1 up-regulation
vitamin C level reached by parenteral (intraperitoneal) administration [6]: 3 mM
cell death (HCT116 cells): able to induce cell death
